Literature values, collected in patent publication US11406636B2, “Combined pharmaceutical composition” (Alepharma, Sociedad Anónima Promotora de inversión de …, priority 2017, dated 2022).
Where two headings read alike, the source gives them in different places.

Legend:
[1] = tested on: streptozotocin-induced diabetic rat; settings: for levels of methylglyoxal: increased by 68% in diabetic rats versus normal controls; for levels of glyoxal: increased by 115% in diabetic rats versus normal controls
[2] = tested on: bovine serum albumin, ribonuclease A and human hemoglobin; settings: in vitro
[3] = tested on: CML formation; settings: bovine serum with ribose, presence or absence of natural compounds
[4] = not given; remark: listed apart in the source
[5] = tested on: diabetic rats; settings: 200 mg/kg weight orally for 8 weeks
[6] = physiological conditions, dose-dependent, forming adducts
[7] = within the first hour under physiological conditions

Compound: C/C(=C(\CCOP(=O)(O)O)SC(=O)c1ccccc1)N(C=O)Cc1cnc(C)nc1N [benfotiamine]
- levels of methylglyoxal [1]: normalized
- levels of glyoxal [1]: normalized

Compound: Cc1ncc(CO)c(CO)c1O [pyridoxine, Pyridoxine]
- inhibition of the formation of AGEs, compared with aminoguanidine [2]: more effective than aminoguanidine

Compound: CC1(C)[C@@H](O)CC[C@]2(C)[C@H]3C(=O)C=C4[C@@H]5C[C@@](C)(C(=O)O)CC[C@]5(C)CC[C@@]4(C)[C@]3(C)CC[C@@H]12 [glycylrhetinic acid]
- formation of CML [3]: significantly inhibited the formation of CML

Compound: C[C@@H]1O[C@@H](O[C@@H]2[C@@H](O)[C@H](OCCc3ccc(O)c(O)c3)O[C@H](CO)[C@H]2OC(=O)/C=C/c2ccc(O)c(O)c2)[C@H](O)[C@H](O)[C@H]1O [acteoside]
- formation of CML [3]: increase the formation of CML

Compound: O=c1c(O)c(-c2ccc(O)c(O)c2)oc2cc(O)cc(O)c12 [quercetin, Quercetin]
- methylglyoxal trapped [6]: ≤ 80%
- methylglyoxal trapped [7]: ≤ 50%
- glyoxal trapped [4, 6]: up to 50%
- glyoxal trapped [4, 7]: up to 30%
- formation of CML [3]: significantly inhibited the formation of CML

Compound: CC1(C)[C@@H](O[C@H]2O[C@H](C(=O)O)[C@@H](O)[C@H](O)[C@H]2O[C@@H]2O[C@H](C(=O)O)[C@@H](O)[C@H](O)[C@H]2O)CC[C@]2(C)[C@H]3C(=O)C=C4[C@@H]5C[C@@](C)(C(=O)O)CC[C@]5(C)CC[C@@]4(C)[C@]3(C)CC[C@@H]12 [glycyrrhizin]
- formation of CML [3]: significantly inhibited the formation of CML

Compound: Cc1ncc(CO)c(CN)c1O [pyridoxamine]
- inhibition of the formation of AGEs, compared with aminoguanidine [2]: more effective than aminoguanidine

Compound: O=C(O)c1cc(O)c(O)c(O)c1 [gallic acid]
- formation of CML [3]: increase the formation of CML

Compound: COc1cc(/C=C/C(=O)CC(=O)/C=C/c2ccc(O)c(OC)c2)ccc1O [curcumin, Curcumin]
- accelerated accumulation of AGEs in the collagen, detected by ELISA [5]: prevented
- accumulation of lipid peroxidation products in serums [5]: significantly reduced
- collagen cross-linking in the tendon of the tail and skin [5]: extensively prevented
- oxidative stress [5]: significantly reduced

Compound: Cc1ncc(C[n+]2csc(CCO)c2C)c(N)n1 [thiamine, Thiamine]
- inhibition of the formation of AGEs, compared with aminoguanidine [2]: more effective than aminoguanidine
- levels of methylglyoxal [1]: normalized
- levels of N-carboxymethyl-lysine (CML) ([1]; increased by 74% in diabetic rats): normalized
- levels of glyoxal [1]: normalized
- levels of N-carboxyethyl-lysine (CEL) ([1]; increased by 118% in diabetic rats): normalized
